Assay results taken from patent US7482489B2, “Enantiomerically pure (R)-albuterol dibenzoyltartrate and protected analogs thereof” (Teva Pharmaceutical Fine Chemicals S.r.l., priority 2004, dated 2009).
Counter-ions that a name gives are not always drawn.

Legend:
Format in all cases: physicochemical
[1] = Stability of levalbuterol hydrochloride at 70° C. (HPLC area %, appearance)
Method: [table] […] At lower pH values, greater levalbuterol hydrochloride degradation occurred. […] Yields were determined by mass. Chemical purity was determined by HPLC. […] The mobile phase comprised a phosphate buffer at pH 3.00 and acetonitrile in a gradient. The eluent flow was 1.0 ml/min. The detector was set to a wavelength of 230 nm, using an HPLC Hewlett Packard VWD detector HP 1100, as a detector.

[2] = Stability comparison of sample at 40° C. and 75% RH (HPLC area %)
Method: Yields were determined by mass. Chemical purity was determined by HPLC. The HPLC analysis was conducted using a column POLARIS C18-A 250 mm×4.6 mm×[…] (cat n.2002-250×046) and a mobile phase. The mobile phase comprised a phosphate buffer at pH 3.00 and acetonitrile in a gradient. The eluent flow was 1.0 ml/min. The detector was set to a wavelength of 230 nm, using an HPLC Hewlett Packard VWD detector HP 1100, as a detector.
Using the products of the previous examples, a stability study at 40° C. and 75% RH was carried out.

[3] = Stability of levalbuterol hydrochloride at different storage temperatures (HPLC area %)
Method: At lower pH values, greater levalbuterol hydrochloride degradation occurred. […] [table] […] The percentage LVB, Compound B, or Compound A is relative to the total amount of sample at time=T. Yields were determined by mass. Chemical purity was determined by HPLC. […] The mobile phase comprised a phosphate buffer at pH 3.00 and acetonitrile in a gradient. The eluent flow was 1.0 ml/min. The detector was set to a wavelength of 230 nm, using an HPLC Hewlett Packard VWD detector HP 1100, as a detector.

[4] = 1 week at 70° C., Hydrochloride
[5] = T = 0, before storage at 70° C., Hydrochloride
[6] = 3 months at 40° C. and 75% RH, Hydrochloride
[7] = 6 months at 40° C. and 75% RH, Hydrochloride
[8] = T = 0, 40° C. and 75% RH study, Hydrochloride

CC(C)(C)NC[C@H](O)c1ccc(O)c(CO)c1 [Example 21, Levalbuterol Hydrochloride]
Compound A [1, 4]: 0.72%
Compound B [1, 4]: 0.26%
Compound C [1, 4]: 0.18%
LVB (levalbuterol hydrochloride) [1, 4]: 97.1%
Sample (appearance) [1, 4]: Pale yellow
Total Unknown Impurities [1, 4]: 1.21%
Compound C ([1]; T = 0, before storage at 70° C.): 0.15%
Compound A [1, 5]: 0.24%
Compound B [1, 5]: 0.18%
LVB (levalbuterol hydrochloride) [1, 5]: 99.4%
Sample (appearance) [1, 5]: White solid^c

CC(C)(C)NC[C@H](O)c1ccc(O)c(CO)c1 [Example 8, Levalbuterol Hydrochloride]
Comp. A [2, 6]: 0.03%
Comp. B [2, 6]: 0.07%
LVB [2, 6]: 99.85%
Total Unknown Impurities [2, 6]: 0.05%
Total Unknown Impurities ([2]; 6 months at 40° C. and 75% RH): 0.09%
Comp. A [2, 7]: 0.03%
Comp. B [2, 7]: 0.07%
LVB [2, 7]: 98.81%
Comp. A [2, 8]: 0.01%
Comp. B [2, 8]: 0.03%
LVB [2, 8]: 99.87%
Total Unknown Impurities [2, 8]: 0.09%

CC(C)(C)NC[C@H](O)c1ccc(O)c(CO)c1 [Example 16, Levalbuterol Hydrochloride]
Comp. C ([2]; 3 months at 40° C. and 75% RH): 0.04%
Comp. A [2, 6]: 0.06%
Comp. B [2, 6]: 0.09%
LVB [2, 6]: 99.75%
Total Unknown Impurities [2, 6]: 0.08%
Comp. C ([2]; 6 months at 40° C. and 75% RH): 0.05%
Comp. A [2, 7]: 0.07%
Comp. B [2, 7]: 0.13%
LVB [2, 7]: 99.72%
Comp. A [2, 8]: 0.01%
Comp. B [2, 8]: 0.02%
LVB [2, 8]: 99.86%
Total Unknown Impurities [2, 8]: 0.11%

CC(C)(C)NC[C@H](O)c1ccc(O)c(CO)c1 [levalbuterol hydrochloride, (R)-α^1-[[(1,1-dimethylethyl)amino]methyl]-4-hydroxy-1,3-benzenedimethanol hydrochloride]
Sample (appearance) [1, 5]: White solid
Compound A ([3]; 1 month, 25° C.): 0.03%
Compound B ([3]; 1 month, 25° C.): 0.02%
LVB ([3]; 1 month, 25° C.): 99.87%
Total Unknown Impurities ([3]; 1 month, 25° C.): 0.08%
Compound A ([3]; 2 months, 25° C.): 0.04%
Compound B ([3]; 2 months, 25° C.): 0.02%
LVB ([3]; 2 months, 25° C.): 99.82%
Total Unknown Impurities ([3]; 2 months, 25° C.): 0.12%
Compound A ([3]; 20 hrs, 40-45° C.): 0.11%
Compound B ([3]; 20 hrs, 40-45° C.): 0.30%
LVB ([3]; 20 hrs, 40-45° C.): 99.30%
Total Unknown Impurities ([3]; 20 hrs, 40-45° C.): 0.29%
Compound A ([3]; 20 hrs, 55-60° C.): 0.23%
Compound B ([3]; 20 hrs, 55-60° C.): 0.45%
LVB ([3]; 20 hrs, 55-60° C.): 98.17%
Total Unknown Impurities ([3]; 20 hrs, 55-60° C.): 1.15%
Compound A ([3]; 32 hrs, 55-60° C.): 0.26%
Compound B ([3]; 32 hrs, 55-60° C.): 0.45%
LVB ([3]; 32 hrs, 55-60° C.): 97.9%
Total Unknown Impurities ([3]; 32 hrs, 55-60° C.): 1.39%
Compound A ([3]; 10 days, 25° C.): 0.02%
Compound B ([3]; 10 days, 25° C.): 0.01%
LVB ([3]; 10 days, 25° C.): 99.88%
Total Unknown Impurities ([3]; 10 days, 25° C.): 0.09%
Compound A ([3]; T = 0, 20° C., MeOH 6700 ppm): 0.028%
Compound B ([3]; T = 0, 20° C., MeOH 6700 ppm): 0.035%
LVB ([3]; T = 0, 20° C., MeOH 6700 ppm): 99.84%
Total Unknown Impurities ([3]; T = 0, 20° C., MeOH 6700 ppm): 0.097%
Compound A ([3]; T = 0, 25° C., MeOH 2090 ppm): 0.02%
Compound B ([3]; T = 0, 25° C., MeOH 2090 ppm): 0.01%
LVB ([3]; T = 0, 25° C., MeOH 2090 ppm): 99.90%
Total Unknown Impurities ([3]; T = 0, 25° C., MeOH 2090 ppm): 0.07%

CC(C)(C)NC[C@H](O)c1ccc(O)c(CO)c1 [Example 12, Levalbuterol Hydrochloride]
Comp. A [2, 6]: 0.02%
Comp. B [2, 6]: 0.06%
LVB [2, 6]: 99.85%
Total Unknown Impurities [2, 6]: 0.07%
Total Unknown Impurities ([2]; 6 months at 40° C. and 75% RH): 0.09%
Comp. A [2, 7]: 0.02%
Comp. B [2, 7]: 0.06%
LVB [2, 7]: 99.83%
Comp. A [2, 8]: 0.02%
Comp. B [2, 8]: 0.01%
LVB [2, 8]: 99.91%
Total Unknown Impurities [2, 8]: 0.06%
